# Reference: ChEMBL document CHEMBL1148109, “Nobiloside, a new neuraminidase inhibitory triterpenoidal saponin from the marine sponge Erylus nobilis” (J Nat Prod, 2002)
# Calls of active or inactive are those of the source. No cut-off for these calls is given here.
# What was measured:
# [1] = biological target: T1, Sialidase (Clostridium perfringens) (UniProt P10481); experiment: Inhibition of Clostridium perfringens neuraminidase at 100 ug/mL
# T1 sequence (whole entry): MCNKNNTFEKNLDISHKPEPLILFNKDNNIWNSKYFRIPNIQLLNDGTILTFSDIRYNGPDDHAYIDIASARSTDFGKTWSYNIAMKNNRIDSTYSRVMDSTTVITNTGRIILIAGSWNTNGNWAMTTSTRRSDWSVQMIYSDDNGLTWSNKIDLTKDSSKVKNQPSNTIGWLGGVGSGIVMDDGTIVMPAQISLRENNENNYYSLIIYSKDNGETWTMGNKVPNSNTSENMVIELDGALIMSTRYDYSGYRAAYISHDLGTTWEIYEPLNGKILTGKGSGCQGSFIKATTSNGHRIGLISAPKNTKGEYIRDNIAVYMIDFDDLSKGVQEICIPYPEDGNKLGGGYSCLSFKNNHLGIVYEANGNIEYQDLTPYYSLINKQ
# Sialidase = biological target: T2, Sialidase (Clostridium perfringens, UniProt P10481); experiment: Inhibition of Clostridium perfringens neuraminidase
# T2 sequence (P10481 whole entry): T1 sequence (whole entry)
Compound,Activity [1],IC50 (Sialidase)
COC(=O)[C@H]1O[C@@H](O[C@H]2[C@H](O)[C@@H](O)[C@H](O[C@H]3CC[C@]4(C)C5=C(CC[C@H]4C3(C)C)[C@]3(C(=O)OC)CC[C@H]([C@H](C)CCC=C(C)C)[C@@]3(C)CC5)O[C@@H]2C(=O)OC)[C@H](O)[C@@H](O[C@@H]2OC[C@H](O)[C@H](O)[C@H]2O)[C@H]1O,inactive,
CC(C)=CCC[C@@H](C)[C@H]1CC[C@@]2(C(=O)O)C3=C(CC[C@]12C)[C@@]1(C)CC[C@H](O[C@@H]2O[C@H](C(=O)O)[C@@H](O[C@@H]4O[C@H](C(=O)O)[C@H](O)[C@H](O[C@@H]5OC[C@H](O)[C@H](O)[C@H]5O)[C@H]4O)[C@H](O)[C@H]2O)C(C)(C)[C@@H]1CC3 [NOBILOSIDE],,489 nM
